Laboratory results: ChEMBL document CHEMBL1141099, “Discovery of N-(2,6-dimethylphenyl)-substituted semicarbazones as anticonvulsants: hybrid pharmacophore-based design” (2005)

How the values were obtained:
Rattus norvegicus [1] = assay: After discharge duration time when before administered in rat 1 at dose 100 mg/Kg when given i.p., upon preliminary hippocampal-kindling screen; Prodrug time 26-42 s; assay type: functional, Hippocampus
Rattus norvegicus [2] = assay: Seizure score before administration in rat 1 at dose 100 mg/Kg when given i.p., upon preliminary hippocampal-kindling screen; assay type: functional, Hippocampus
Mus musculus [3] = assay: Minimum dose required for anticonvulsant activity when given i.p., at 0.5 hr in mice upon neurotoxicity seizure using rotarod test; assay type: functional
Rattus norvegicus [4] = assay: Seizure score before administration in rat 2 at dose 100 mg/Kg when given i.p., upon preliminary hippocampal-kindling screen; […]; assay type: functional, Hippocampus
Mus musculus [5] = assay: Minimum dose required for anticonvulsant activity when given i.p., at 0.5 hr in mice upon maximal electroshock seizure; assay type: functional
Rattus norvegicus [6] = species: Rattus norvegicus; assay: Ex vitro percentage inhibition activity against GABA-T enzyme at a concentration of 5 uM after 3 h; assay type: functional
Rattus norvegicus [7] = species: Rattus norvegicus; assay: Ex vitro percentage inhibition activity against GABA-T enzyme at a concentration of 5 uM after 4.5 h; assay type: functional
Rattus norvegicus [8] = assay: Effective dose required for anticonvulsant activity when given i.p., at 1 hr in rat upon maximal electroshock seizure; assay type: functional; conditions: ip
Mus musculus [9] = assay: Mean sleeping time evaluated for CNS study using the pentobarbital-induced narcosis model at a dose of 100 mg/Kg when given i.p., in mice (No. of animals 6)
Rattus norvegicus [10] = species: Rattus norvegicus; assay: Ex vitro percentage inhibition activity against GABA-T enzyme at a concentration of 5 uM after 6 h; assay type: functional
Mus musculus [11] = assay: Post treatment activity score for CNS study using a actophotometer at a dose of 100 mg/Kg after 1 hr when given i.p., in mice (No. of animals 6); Control (24h before) 202
Mus musculus [12] = assay: Minimum dose required for anticonvulsant activity when given i.p., at 2 hr in mice upon subcutaneous strychnine seizure; assay type: functional
Mus musculus [13] = assay: Minimum dose required for anticonvulsant activity when given i.p., at 0.5 hr in mice upon subcutaneous strychnine seizure; assay type: functional
Rattus norvegicus [14] = assay: Number of rats protected at a dose of 30 mg/Kg when given oral at 4 hr upon maximal electroshock seizure; Total number of rats = 4; assay type: functional
Mus musculus [15] = assay: Post treatment activity score for CNS study using a actophotometer at a dose of 100 mg/Kg after 0.5 hr when given i.p., in mice (No. of animals 6); Control (24h before) 202
Mus musculus [16] = assay: Post treatment immobility time for CNS study using Porsolt's swimpool test at a dose of 100 mg/Kg after 1 hr when given i.p., in mice (No. of animals 6); Control (24h before) 173
Mus musculus [17] = assay: Minimum dose required for anticonvulsant activity when given i.p., at 4 hr in mice upon maximal electroshock seizure; assay type: functional
Rattus norvegicus [18] = assay: Toxic dose observed for anticonvulsant activity when given i.p., at 1 h in rat upon neurotoxicity seizure; assay type: functional; conditions: ip
Rattus norvegicus [19] = assay: Number of rats protected at a dose of 30 mg/Kg when given oral at 2 hr upon maximal electroshock seizure; Total number of rats = 4; assay type: functional
[20] = target: 4-aminobutyrate aminotransferase, mitochondrial (Rattus norvegicus) (UniProt P50554); assay: In vitro percentage inhibition activity against GABA-T enzyme at a concentration of 0.625 uM after 6 h
Sequence of 4-aminobutyrate aminotransferase, mitochondrial (Rattus norvegicus) (P50554 28-500 limits assumed): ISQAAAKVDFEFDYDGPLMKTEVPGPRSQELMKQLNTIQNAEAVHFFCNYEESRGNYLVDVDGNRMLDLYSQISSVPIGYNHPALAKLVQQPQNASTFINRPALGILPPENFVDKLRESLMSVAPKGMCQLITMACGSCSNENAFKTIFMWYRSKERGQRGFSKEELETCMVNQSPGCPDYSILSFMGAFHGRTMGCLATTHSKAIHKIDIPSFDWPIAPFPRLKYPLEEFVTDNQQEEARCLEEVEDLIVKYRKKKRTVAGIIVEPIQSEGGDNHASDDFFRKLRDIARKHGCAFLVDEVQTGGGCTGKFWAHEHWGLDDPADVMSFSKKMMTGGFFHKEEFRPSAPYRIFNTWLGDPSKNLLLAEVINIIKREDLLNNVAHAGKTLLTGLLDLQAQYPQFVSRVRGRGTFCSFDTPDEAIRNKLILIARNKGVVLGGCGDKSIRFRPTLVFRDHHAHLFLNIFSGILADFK

Rattus norvegicus [21] = assay: After discharge duration time when before administered in rat 2 at dose 100 mg/Kg when given i.p., upon preliminary hippocampal-kindling screen; Prodrug time 11-39 s; assay type: functional, Hippocampus
Rattus norvegicus [22] = assay: Effect on GABA level in rat whole brain concentration after 7 days post-treatment at a dose of 30 mg/Kg when given orally; Control 50.5; assay type: functional
Rattus norvegicus [23] = species: Rattus norvegicus; assay: Protective index between effective dose and toxic dose in rat; assay type: functional
Mus musculus [24] = assay: Minimum dose required for anticonvulsant activity when given i.p., at 0.5 hr in mice upon subcutaneous pentylenetetrazole seizure; assay type: functional
Rattus norvegicus [25] = assay: After discharge duration time when after administered in rat 1 at dose 100 mg/Kg when given i.p., upon preliminary hippocampal-kindling screen; assay type: functional, Hippocampus
Rattus norvegicus [26] = assay: Number of rats protected at a dose of 30 mg/Kg when given oral at 1 hr upon maximal electroshock seizure; Total number of rats = 4; assay type: functional
Rattus norvegicus [27] = assay: Number of rats protected at a dose of 30 mg/Kg when given oral at 0.25 hr upon maximal electroshock seizure; Total number of rats = 4; assay type: functional
Rattus norvegicus [28] = assay: After discharge duration time when after administered in rat 2 at dose 100 mg/Kg when given i.p., upon preliminary hippocampal-kindling screen; assay type: functional, Hippocampus
Rattus norvegicus [29] = assay: Seizure score after administration in rat 2 at dose 100 mg/Kg when given i.p., upon preliminary hippocampal-kindling screen; assay type: functional, Hippocampus
Rattus norvegicus [30] = assay: Effect on GABA level in rat whole brain concentration after 2 hr post-treatment at a dose of 100 mg/Kg when given i.p.; Control 48.4; assay type: functional
[31] = target: 4-aminobutyrate aminotransferase, mitochondrial (Rattus norvegicus) (UniProt P50554); assay: In vitro percentage inhibition activity against GABA-T enzyme at a concentration of 0.625 uM after 3 h
[32] = target: 4-aminobutyrate aminotransferase, mitochondrial (Rattus norvegicus) (UniProt P50554); assay: In vitro percentage inhibition activity against GABA-T enzyme at a concentration of 0.625 uM after 4.5 h
Rattus norvegicus [33] = assay: Number of rats protected at a dose of 30 mg/Kg when given oral at 0.5 hr upon maximal electroshock seizure; Total number of rats = 4; assay type: functional
Rattus norvegicus [34] = assay: Seizure score after administration in rat 1 at dose 100 mg/Kg when given i.p., upon preliminary hippocampal-kindling screen; assay type: functional, Hippocampus

Question: With Cc1cccc(C)c1NC(=O)N/N=C/c1cccc([N+](=O)[O-])c1 as the molecule, how does the ADD (Rattus norvegicus [1]) read?
Answer: 42 s

Question: What about the Score (Rattus norvegicus [2]) of the same molecule?
Answer: 5

Question: And the NT (Mus musculus [3])?
Answer: 300 mg/kg

Question: What about the Score (Rattus norvegicus [4]) of the same molecule?
Answer: 4

Question: What about the MES (Mus musculus [5]) of the same molecule?
Answer: 100 mg/kg

Question: What about the Inhibition (Rattus norvegicus [6]) of the same molecule?
Answer: 0%

Question: What about the Inhibition (Rattus norvegicus [7]) of the same molecule?
Answer: 0%

Question: And the ED50 (Rattus norvegicus [8])?
Answer: 29.7 mg/kg

Question: What about the Time (Mus musculus [9]) of the same molecule?
Answer: 147 min

Question: What about the Inhibition (Rattus norvegicus [10]) of the same molecule?
Answer: 0%

Question: What about the Activity (Mus musculus [11]) of the same molecule?
Answer: 131

Question: What about the STY seizure (Mus musculus [12]) of the same molecule?
Answer: 100 mg/kg

Question: What about the STY seizure (Mus musculus [13]) of the same molecule?
Answer: 30 mg/kg

Question: And the Activity (Rattus norvegicus [14])?
Answer: 3

Question: And the Activity (Mus musculus [15])?
Answer: 129

Question: What about the Activity (Mus musculus [16]) of the same molecule?
Answer: 231

Question: And the MES (Mus musculus [17])?
Answer: 300 mg/kg

Question: What about the TD50 (Rattus norvegicus [18]) of the same molecule?
Answer: > 120 mg/kg

Question: And the Activity (Rattus norvegicus [19])?
Answer: 1

Question: And the inhibition [20]?
Answer: 0%

Question: What about the ADD (Rattus norvegicus [21]) of the same molecule?
Answer: 39 s

Question: What about the Activity (Rattus norvegicus [22]) of the same molecule?
Answer: 87.9 ug/100mg of tissue

Question: What about the PI (Rattus norvegicus [23]) of the same molecule?
Answer: >4

Question: And the PTZ seizure (Mus musculus [24])?
Answer: 300 mg/kg

Question: And the ADD (Rattus norvegicus [25])?
Answer: 52 s

Question: And the Activity (Rattus norvegicus [26])?
Answer: 3

Question: And the Activity (Rattus norvegicus [27])?
Answer: 1

Question: What about the ADD (Rattus norvegicus [28]) of the same molecule?
Answer: 59 s

Question: And the Score (Rattus norvegicus [29])?
Answer: 5

Question: What about the Activity (Rattus norvegicus [30]) of the same molecule?
Answer: 79.8 ug/100mg of tissue

Question: And the inhibition [31]?
Answer: 88%

Question: What about the inhibition [32] of the same molecule?
Answer: 0%

Question: And the Activity (Rattus norvegicus [33])?
Answer: 1

Question: And the Score (Rattus norvegicus [34])?
Answer: 1
